Paper PMC7402526, “An in vitro quantitative systems pharmacology approach for deconvolving mechanisms of drug-induced, multilineage cytopenias” (PLoS Computational Biology, 2020)

How the values were obtained:
Format in all cases: cell-based, human
[1] = test system: hematopoietic stem cells (HSCs); assay: Multi-lineage toxicity assay (MLTA), HSCs: concentration-response and QSP model fit
Procedure, shortened: (§1)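 Freeze-thawed primary human bone marrow CD34+ cells were grown in SFEM II with a multi-lineage cytokine cocktail, drug added day 0, six days at 37°C. Lineage counts came from 17-parameter flow with TruCount beads, vehicle-normalized per donor, then fitted by an Emax-based QSP model.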

[2] = test system: granulocyte progenitor (Gran-lin prog); assay: MLTA, GranP: concentration-response and QSP model fit; settings: Homo sapiens, 144 h
Procedure, shortened: as §1

[3] = test system: monocyte progenitors (monocyte prog); assay: MLTA, MonoP: concentration-response and QSP model fit
Procedure, shortened: as §1

[4] = test system: monocytes (monocyte-lin); assay: MLTA, Mono: concentration-response and QSP model fit; settings: Homo sapiens, Monocyte, 144 h
Procedure, shortened: as §1

[5] = test system: neutrophils (neutrophil-lin); assay: MLTA, Neut: concentration-response and QSP model fit; settings: Homo sapiens, Neutrophil, 144 h
Procedure, shortened: as §1

[6] = test system: early erythroid cells (Eryth I); assay: MLTA, ErythI: concentration-response and QSP model fit
Procedure, shortened: as §1

[7] = test system: B cells (B-lin); assay: MLTA, B-lin: concentration-response and QSP model fit; settings: Homo sapiens, B-cell, 144 h
Procedure, shortened: as §1

[8] = cell-killing component, max(0, EmaxT-1)
[9] = QSP model fit of 6-day MLTA data

## CC(=O)O[C@H]1C(=O)[C@@]2(C)[C@H]([C@H](OC(=O)c3ccccc3)[C@]3(O)C[C@H](OC(=O)[C@H](O)[C@@H](NC(=O)c4ccccc4)c4ccccc4)C(C)=C1C3(C)C)[C@]1(OC(C)=O)CO[C@@H]1C[C@@H]2O [paclitaxel]
[1]; Homo sapiens, Hematopoietic stem cell, 144 h, QSP model fit of 6-day MLTA data
  EC50: 62.3 nM
[1]; Homo sapiens, Hematopoietic stem cell, 144 h, dose 0.2 nM, 6 days, normalized to vehicle control, read-out: HSCs normalized cell count
  activity at 0.0002 µM: 109%
[1]; Homo sapiens, Hematopoietic stem cell, 144 h, dose 1 nM, 6 days, normalized to vehicle control, read-out: HSCs normalized cell count
  activity at 0.001 µM: 87.5%
[1]; Homo sapiens, Hematopoietic stem cell, 144 h, dose 5 nM, 6 days, normalized to vehicle control, read-out: HSCs normalized cell count
  activity at 0.005 µM: 118%
[1]; Homo sapiens, Hematopoietic stem cell, 144 h, dose 25 nM, 6 days, normalized to vehicle control, read-out: HSCs normalized cell count
  activity at 0.025 µM: 28.1%
[1]; Homo sapiens, Hematopoietic stem cell, 144 h, dose 100 nM, 6 days, normalized to vehicle control, read-out: HSCs normalized cell count
  activity at 0.1 µM: 4.8%
[1]; Homo sapiens, Hematopoietic stem cell, 144 h, dose 500 nM, 6 days, normalized to vehicle control, read-out: HSCs normalized cell count
  activity at 0.5 µM: 1.08%
[1]; Homo sapiens, Hematopoietic stem cell, 144 h, dose 2500 nM, 6 days, normalized to vehicle control, read-out: HSCs normalized cell count
  activity at 2.5 µM: 1.34%
[1]; Homo sapiens, Hematopoietic stem cell, 144 h, parameter from QSP model fitting, read-out: Emax_drug_HSC
  Emax: 119%
[1]; [8]
  EmaxCK,HSC: 0.188 day⁻¹
[2]; dose 0.2 nM, 6 days, normalized to vehicle control, read-out: GranPs normalized cell count
  activity at 0.0002 µM: 114%
[2]; dose 1 nM, 6 days, normalized to vehicle control, read-out: GranPs normalized cell count
  activity at 0.001 µM: 112%
[2]; dose 5 nM, 6 days, normalized to vehicle control, read-out: GranPs normalized cell count
  activity at 0.005 µM: 106%
[2]; dose 25 nM, 6 days, normalized to vehicle control, read-out: GranPs normalized cell count
  activity at 0.025 µM: 0.213%
[2]; dose 100 nM, 6 days, normalized to vehicle control, read-out: GranPs normalized cell count
  activity at 0.1 µM: 0.0154%
[2]; dose 500 nM, 6 days, normalized to vehicle control, read-out: GranPs normalized cell count
  activity at 0.5 µM: 0.032%
[2]; dose 2500 nM, 6 days, normalized to vehicle control, read-out: GranPs normalized cell count
  activity at 2.5 µM: 0.0153%
[2]; parameter from QSP model fitting, read-out: Emax_drug_GranP
  Emax: 0.04%
[3]; Homo sapiens, Monocyte, 144 h, QSP model fit of 6-day MLTA data, read-out: EC50MonoP
  EC50: 24.8 nM
[3]; Homo sapiens, Monocyte, 144 h, dose 0.2 nM, 6 days, normalized to vehicle control, read-out: MonoPs normalized cell count
  activity at 0.0002 µM: 102%
[3]; Homo sapiens, Monocyte, 144 h, dose 1 nM, 6 days, normalized to vehicle control, read-out: MonoPs normalized cell count
  activity at 0.001 µM: 112%
[3]; Homo sapiens, Monocyte, 144 h, dose 5 nM, 6 days, normalized to vehicle control, read-out: MonoPs normalized cell count
  activity at 0.005 µM: 89%
[3]; Homo sapiens, Monocyte, 144 h, dose 25 nM, 6 days, normalized to vehicle control, read-out: MonoPs normalized cell count
  activity at 0.025 µM: 0.562%
[3]; Homo sapiens, Monocyte, 144 h, dose 100 nM, 6 days, normalized to vehicle control, read-out: MonoPs normalized cell count
  activity at 0.1 µM: 0.118%
[3]; Homo sapiens, Monocyte, 144 h, dose 500 nM, 6 days, normalized to vehicle control, read-out: MonoPs normalized cell count
  activity at 0.5 µM: 0.188%
[3]; Homo sapiens, Monocyte, 144 h, dose 2500 nM, 6 days, normalized to vehicle control, read-out: MonoPs normalized cell count
  activity at 2.5 µM: 0.286%
[3]; Homo sapiens, Monocyte, 144 h, parameter from QSP model fitting, read-out: Emax_drug_MonoP
  Emax: 156%
[3]; [8]
  EmaxCK,MonoP: 0.556 day⁻¹
[4]; [9]
  EC50: 30 nM
[4]; dose 0.2 nM, 6 days, normalized to vehicle control, read-out: Mon normalized cell count
  activity at 0.0002 µM: 90.9%
[4]; dose 1 nM, 6 days, normalized to vehicle control, read-out: Mon normalized cell count
  activity at 0.001 µM: 93.8%
[4]; dose 5 nM, 6 days, normalized to vehicle control, read-out: Mon normalized cell count
  activity at 0.005 µM: 77%
[4]; dose 25 nM, 6 days, normalized to vehicle control, read-out: Mon normalized cell count
  activity at 0.025 µM: 0.638%
[4]; dose 100 nM, 6 days, normalized to vehicle control, read-out: Mon normalized cell count
  activity at 0.1 µM: 0.419%
[4]; dose 500 nM, 6 days, normalized to vehicle control, read-out: Mon normalized cell count
  activity at 0.5 µM: 1.04%
[4]; dose 2500 nM, 6 days, normalized to vehicle control, read-out: Mon normalized cell count
  activity at 2.5 µM: 0.347%
[4]; parameter from QSP model fitting, read-out: Emax_drug_Mono
  Emax: 25.8%
[5]; [9]
  EC50: 25.1 nM
[5]; dose 0.2 nM, 6 days, normalized to vehicle control, read-out: Neut normalized cell count
  activity at 0.0002 µM: 88.3%
[5]; dose 1 nM, 6 days, normalized to vehicle control, read-out: Neut normalized cell count
  activity at 0.001 µM: 80.1%
[5]; dose 5 nM, 6 days, normalized to vehicle control, read-out: Neut normalized cell count
  activity at 0.005 µM: 52.3%
[5]; dose 25 nM, 6 days, normalized to vehicle control, read-out: Neut normalized cell count
  activity at 0.025 µM: 0.045%
[5]; dose 100 nM, 6 days, normalized to vehicle control, read-out: Neut normalized cell count
  activity at 0.1 µM: 0.0394%
[5]; dose 500 nM, 6 days, normalized to vehicle control, read-out: Neut normalized cell count
  activity at 0.5 µM: 0%
[5]; dose 2500 nM, 6 days, normalized to vehicle control, read-out: Neut normalized cell count
  activity at 2.5 µM: 0%
[5]; parameter from QSP model fitting, read-out: Emax_drug_Neut
  Emax: 21.4%
[6]; Homo sapiens, 144 h, QSP model fit of 6-day MLTA data, read-out: EC50ErythI
  EC50: 15.4 nM
[6]; Homo sapiens, 144 h, dose 0.2 nM, 6 days, normalized to vehicle control, read-out: ErythI normalized cell count
  activity at 0.0002 µM: 124%
[6]; Homo sapiens, 144 h, dose 1 nM, 6 days, normalized to vehicle control, read-out: ErythI normalized cell count
  activity at 0.001 µM: 112%
[6]; Homo sapiens, 144 h, dose 5 nM, 6 days, normalized to vehicle control, read-out: ErythI normalized cell count
  activity at 0.005 µM: 83.5%
[6]; Homo sapiens, 144 h, dose 25 nM, 6 days, normalized to vehicle control, read-out: ErythI normalized cell count
  activity at 0.025 µM: 2.87%
[6]; Homo sapiens, 144 h, dose 100 nM, 6 days, normalized to vehicle control, read-out: ErythI normalized cell count
  activity at 0.1 µM: 0.445%
[6]; Homo sapiens, 144 h, dose 500 nM, 6 days, normalized to vehicle control, read-out: ErythI normalized cell count
  activity at 0.5 µM: 0.574%
[6]; Homo sapiens, 144 h, dose 2500 nM, 6 days, normalized to vehicle control, read-out: ErythI normalized cell count
  activity at 2.5 µM: 0.379%
[6]; Homo sapiens, 144 h, parameter from QSP model fitting, read-out: Emax_drug_ErythroidI
  Emax: 147%
[6]; [8]
  EmaxCK,ErythI: 0.466 day⁻¹
[7]; [9]
  EC50: 36.7 nM
[7]; dose 0.2 nM, 6 days, normalized to vehicle control, read-out: B-lin normalized cell count
  activity at 0.0002 µM: 102%
[7]; dose 1 nM, 6 days, normalized to vehicle control, read-out: B-lin normalized cell count
  activity at 0.001 µM: 109%
[7]; dose 5 nM, 6 days, normalized to vehicle control, read-out: B-lin normalized cell count
  activity at 0.005 µM: 75.9%
[7]; dose 25 nM, 6 days, normalized to vehicle control, read-out: B-lin normalized cell count
  activity at 0.025 µM: 1.34%
[7]; dose 100 nM, 6 days, normalized to vehicle control, read-out: B-lin normalized cell count
  activity at 0.1 µM: 0.231%
[7]; dose 500 nM, 6 days, normalized to vehicle control, read-out: B-lin normalized cell count
  activity at 0.5 µM: 0.372%
[7]; dose 2500 nM, 6 days, normalized to vehicle control, read-out: B-lin normalized cell count
  activity at 2.5 µM: 0.335%
[7]; parameter from QSP model fitting, read-out: Emax_drug_B
  Emax: 91.4%
